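Test compounds were applied to cells in 96-well plates for 48 hours at 5 doses. GI50 is the concentration that inhibits growth by half. TGI denotes the concentration required for complete inhibition of growth.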
Experiments:
Test in all cases: NCI-60 cell line screen, 48 h
HT29 colon = test system: HT29 colon
OVCAR-4 ovarian = test system: OVCAR-4 ovarian
CCRF-CEM leukemia = test system: CCRF-CEM leukemia
HL-60(TB) leukemia = test system: HL-60(TB) leukemia
NCI-H460 lung = test system: NCI-H460 lung
MALME-3M melanoma = test system: MALME-3M melanoma
SK-MEL-2 melanoma = test system: SK-MEL-2 melanoma
SF-295 CNS = test system: SF-295 CNS
HOP-92 NSCLC = test system: HOP-92 NSCLC
MDA-MB-231 breast = test system: MDA-MB-231 breast

N#Cc1c(N)nc(N2CCOCC2)c(C#N)c1-c1ccccn1
GI50 (HT29 colon): > 100 µM | TGI (HT29 colon): > 100 µM | GI50 (OVCAR-4 ovarian): > 100 µM | TGI (OVCAR-4 ovarian): > 100 µM | GI50 (CCRF-CEM leukemia): > 100 µM | TGI (CCRF-CEM leukemia): > 100 µM | GI50 (HL-60(TB) leukemia): > 100 µM | TGI (HL-60(TB) leukemia): > 100 µM | GI50 (NCI-H460 lung): > 100 µM | TGI (NCI-H460 lung): > 100 µM | GI50 (MALME-3M melanoma): > 100 µM | TGI (MALME-3M melanoma): > 100 µM | GI50 (SK-MEL-2 melanoma): > 100 µM | TGI (SK-MEL-2 melanoma): > 100 µM | GI50 (SF-295 CNS): > 100 µM | TGI (SF-295 CNS): > 100 µM | GI50 (HOP-92 NSCLC): > 52.8 µM | TGI (HOP-92 NSCLC): > 100 µM

COc1ccc(/C=C2\CCC(CCN(C)C)(C3=CCCC3)C2=O)cc1Br (configuration not stated)
TGI (HT29 colon): 7.14 µM | TGI (OVCAR-4 ovarian): 14.5 µM | TGI (CCRF-CEM leukemia): 5.74 µM | TGI (HL-60(TB) leukemia): 4.63 µM | TGI (NCI-H460 lung): 25.6 µM | TGI (MALME-3M melanoma): 28 µM | TGI (SK-MEL-2 melanoma): 22.2 µM | TGI (SF-295 CNS): 13.7 µM | TGI (HOP-92 NSCLC): 11.3 µM

CCCCCCCCCC(=O)OCC1OC(n2cc(F)c(=O)[nH]c2=O)C(NC(=O)OCc2ccccc2)C(OC(=O)CCCCCCCCC)C1O (configuration not stated)
TGI (HT29 colon): 35 µM | TGI (OVCAR-4 ovarian): 40.6 µM | TGI (CCRF-CEM leukemia): > 100 µM | TGI (HL-60(TB) leukemia): 55.8 µM | TGI (MALME-3M melanoma): 90.6 µM | TGI (SK-MEL-2 melanoma): > 100 µM | TGI (SF-295 CNS): > 100 µM | TGI (HOP-92 NSCLC): 36.3 µM

Cc1cccc(C(C)(C)C)c1NC(=O)CCc1nc(=S)[nH][nH]1
TGI (HT29 colon): > 100 µM | TGI (OVCAR-4 ovarian): > 100 µM | TGI (CCRF-CEM leukemia): > 100 µM | TGI (HL-60(TB) leukemia): > 100 µM | TGI (NCI-H460 lung): > 100 µM | TGI (MALME-3M melanoma): > 100 µM | TGI (SK-MEL-2 melanoma): > 100 µM | TGI (SF-295 CNS): > 100 µM | TGI (HOP-92 NSCLC): > 100 µM

CCOC(=O)C(CC/C=C\c1ccccc1)N1CCC[C@H]1C(=O)OC (some centres not stated)
TGI (HT29 colon): > 100 µM | TGI (OVCAR-4 ovarian): > 100 µM | TGI (CCRF-CEM leukemia): > 100 µM | TGI (HL-60(TB) leukemia): > 100 µM | TGI (NCI-H460 lung): > 100 µM | TGI (MALME-3M melanoma): > 100 µM | TGI (SK-MEL-2 melanoma): > 100 µM | TGI (SF-295 CNS): > 100 µM | TGI (HOP-92 NSCLC): > 100 µM

O=NNc1ccc(Sc2ccc(NN=O)cn2)nc1
TGI (HT29 colon): > 100 µM | TGI (MDA-MB-231 breast): > 100 µM | TGI (OVCAR-4 ovarian): > 100 µM | TGI (CCRF-CEM leukemia): > 100 µM | TGI (HL-60(TB) leukemia): > 100 µM | TGI (NCI-H460 lung): > 100 µM | TGI (SF-295 CNS): > 100 µM

CCOC(=O)c1cnc2sc3ccc4ccccc4c3n2c1=O
TGI (HT29 colon): > 100 µM | TGI (OVCAR-4 ovarian): > 100 µM | TGI (CCRF-CEM leukemia): 82.6 µM | TGI (HL-60(TB) leukemia): 52 µM | TGI (NCI-H460 lung): > 100 µM | TGI (MALME-3M melanoma): > 100 µM | TGI (SK-MEL-2 melanoma): > 100 µM | TGI (SF-295 CNS): > 100 µM | TGI (HOP-92 NSCLC): > 100 µM

CC(=O)c1c(CO[N+](=O)[O-])n([O-])c2ccccc2[n+]1=O
TGI (HT29 colon): > 100 µM | TGI (MDA-MB-231 breast): > 100 µM | TGI (OVCAR-4 ovarian): > 100 µM | TGI (CCRF-CEM leukemia): > 100 µM | TGI (NCI-H460 lung): > 100 µM | TGI (MALME-3M melanoma): > 100 µM | TGI (SK-MEL-2 melanoma): > 100 µM | TGI (SF-295 CNS): > 100 µM | TGI (HOP-92 NSCLC): > 100 µM

O=C(O/N=C1/CCC/C1=C\c1ccccc1)c1ccc(Cl)c(Cl)c1
TGI (HT29 colon): > 100 µM | TGI (OVCAR-4 ovarian): > 100 µM | TGI (CCRF-CEM leukemia): > 100 µM | TGI (HL-60(TB) leukemia): > 100 µM | TGI (NCI-H460 lung): > 100 µM | TGI (MALME-3M melanoma): > 100 µM | TGI (SK-MEL-2 melanoma): > 100 µM | TGI (SF-295 CNS): > 100 µM | TGI (HOP-92 NSCLC): > 100 µM

CCOC(=O)c1cnc2c(ccc3ncccc32)c1NCCCN(CC)CC
TGI (HT29 colon): > 100 µM | TGI (OVCAR-4 ovarian): > 100 µM | TGI (CCRF-CEM leukemia): > 100 µM | TGI (HL-60(TB) leukemia): 38.4 µM | TGI (NCI-H460 lung): > 100 µM | TGI (MALME-3M melanoma): > 100 µM | TGI (SK-MEL-2 melanoma): > 100 µM | TGI (SF-295 CNS): > 100 µM | TGI (HOP-92 NSCLC): > 100 µM

C/C=C(\CCOS(=O)(=O)c1ccc(C)cc1)[Si](C)(C)C
TGI (HT29 colon): > 100 µM | TGI (CCRF-CEM leukemia): 27.3 µM | TGI (HL-60(TB) leukemia): > 100 µM | TGI (NCI-H460 lung): > 100 µM | TGI (MALME-3M melanoma): > 100 µM | TGI (SK-MEL-2 melanoma): > 100 µM | TGI (SF-295 CNS): > 100 µM | TGI (HOP-92 NSCLC): > 100 µM

O=C(CCn1[nH]c(=O)c(Cl)c(Cl)c1=O)NNC(=O)C[n+]1ccccc1
TGI (HT29 colon): > 100 µM | TGI (OVCAR-4 ovarian): > 100 µM | TGI (CCRF-CEM leukemia): > 100 µM | TGI (HL-60(TB) leukemia): > 100 µM | TGI (NCI-H460 lung): > 100 µM | TGI (MALME-3M melanoma): > 100 µM | TGI (SK-MEL-2 melanoma): > 100 µM | TGI (SF-295 CNS): > 100 µM

Reference: PubChem BioAssay (NCI)
